Consider 17 compounds from patent publication US10106544B2, “1,2-dihydro-3H-pyrrolo[1,2-C]imidazol-3-one derivatives and their use as antibacterial agents” (priority 2014, dated 2018).

≈ marks a conversion by molar mass, not a printed value.

Common to all, as to experiment: Bacterial growth minimal inhibitory concentration (microdilution, cation-adjusted Mueller-Hinton Broth)
Holding throughout (type): cell-based

Experiment [1] deals with E. coli ATCC25922. The settings on record: Escherichia coli, ATCC25922; quinolone-sensitive strain; read-out: MIC for E. coli ATCC25922. As to the method: (§1) Minimal Inhibitory Concentrations (MICs; mg/L) were determined in cation-adjusted Mueller-Hinton Broth by a microdilution method following the description given in “Methods for Dilution Antimicrobial Susceptibility Tests for Bacteria that Grow Aerobically”, Approved standard, 7th ed., a Clinical and Laboratory Standards Institute (CLSI) Document M7-A7, Wayne, Pa., USA (2006).
(§2) All Example compounds were tested against several Gram-positive and Gram-negative bacteria. […] K. pneumoniae A-651 is a multiply-resistant strain (in particular quinolone-resistant), while E. coli ATCC25922 and P. aeruginosa ATCC27853 are quinolone-sensitive strains.

The subject of experiment [2] is K. pneumoniae A-651. As to conditions: Klebsiella pneumoniae, A651; multiply-resistant strain (in particular quinolone-resistant); read-out: MIC for K. Pneumoniae A-651. As to the method:
as §1, §2

Experiment [3] concerns P. aeruginosa ATCC27853. As to conditions: Pseudomonas aeruginosa, ATCC27853, quinolone-sensitive strain; read-out: MIC for P. aeruginosa ATCC27853. As to the method: as §1, §2

In the case of `C[C@@](CCN1Cc2cc(C#Cc3ccc(C4(CO)CCC4)cc3)cn2C1=O)(C(=O)NO)S(C)(=O)=O` [Example 40, (R)-N-hydroxy-4-(6-((4-(1-(hydroxymethyl)cyclobutyl)phenyl)ethynyl)-3-oxo-1H-pyrrolo[1,2-c]imidazol-2(3H)-yl)-2-methyl-2-(methylsulfonyl)butanamide], the MIC in experiment [1] is at most 0.063 µg/mL; in experiment [2], 0.25 µg/mL (≈ 0.5 µM); in experiment [3], 1 µg/mL (≈ 2 µM).
The matching figures for `CC(C)(O)c1ncc(C#Cc2cc3n(c2)C(=O)N(CC[C@](C)(C(=O)NO)S(C)(=O)=O)C3)s1` [Example 76, (R)-N-hydroxy-4-(6-((2-(2-hydroxypropan-2-yl)thiazol-5-yl)ethynyl)-3-oxo-1H-pyrrolo[1,2-c]imidazol-2(3H)-yl)-2-methyl-2-(methylsulfonyl)butanamide]: 1 µg/mL (≈ 2.08 µM), 2 µg/mL (≈ 4.16 µM) and 2 µg/mL (≈ 4.16 µM).
The matching figures for `C[C@@](CCN1Cc2cc(-c3ccc(C(F)(F)F)cc3F)cn2C1=O)(C(=O)NO)S(C)(=O)=O` [Example 53, (R)-4-(6-(2-fluoro-4-(trifluoromethyl)phenyl)-3-oxo-1H-pyrrolo[1,2-c]imidazol-2(3H)-yl)-N-hydroxy-2-methyl-2-(methylsulfonyl)butanamide]: 0.25 µg/mL (≈ 0.524 µM), 0.25 µg/mL (≈ 0.524 µM) and 8 µg/mL (≈ 16.8 µM).
The like results for `C[C@@](CCN1Cc2cc(C#CC#CC3(CO)CC3)cn2C1=O)(C(=O)NO)S(C)(=O)=O` [Example 15, (R)-N-hydroxy-4-(6-((1-(hydroxymethyl)cyclopropyl)buta-1,3-diyn-1-yl)-3-oxo-1H-pyrrolo[1,2-c]imidazol-2(3H)-yl)-2-methyl-2-(methylsulfonyl)butanamide] were, in that order, 0.5 µg/mL (≈ 1.15 µM), 1 µg/mL (≈ 2.31 µM) and 1 µg/mL (≈ 2.31 µM).
As for `C[C@@](CCN1Cc2cc(C#Cc3ccc(NC(=O)CO)cc3)cn2C1=O)(C(=O)NO)S(C)(=O)=O` [Example 71, (R)-N-hydroxy-4-(6-((4-(2-hydroxyacetamido)phenyl)ethynyl)-3-oxo-1H-pyrrolo[1,2-c]imidazol-2(3H)-yl)-2-methyl-2-(methylsulfonyl)butanamide], the MIC in experiment [1] was 0.25 µg/mL (≈ 0.512 µM); in experiment [2], 1 µg/mL (≈ 2.05 µM); in experiment [3] it was 1 µg/mL (≈ 2.05 µM).
In the case of `C[C@@](CCN1Cc2cc(C#Cc3ccc(C4(N)CC4)s3)cn2C1=O)(C(=O)NO)S(C)(=O)=O` [Example 68, (R)-4-(6-((5-(1-aminocyclopropyl)thiophen-2-yl)ethynyl)-3-oxo-1H-pyrrolo[1,2-c]imidazol-2(3H)-yl)-N-hydroxy-2-methyl-2-(methylsulfonyl)butanamide], the MIC in experiment [1] stood at 0.125 µg/mL (≈ 0.262 µM); in experiment [2] it was 0.125 µg/mL (≈ 0.262 µM); in experiment [3], 1 µg/mL (≈ 2.1 µM).
For `CC(C)(O)C#Cc1ccc(-c2cc3n(c2)C(=O)N(CCC(C)(C(=O)NO)S(C)(=O)=O)C3)cc1` (racemic) [RE4, (RS)—N-hydroxy-4-(6-(4-(3-hydroxy-3-methylbut-1-yn-1-yl)phenyl)-3-oxo-1H-pyrrolo[1,2-c]imidazol-2(3H)-yl)-2-methyl-2-(methylsulfonyl)butanamide], the MIC in experiment [1] came out at 0.25 µg/mL (≈ 0.528 µM); in experiment [2] it was 0.5 µg/mL (≈ 1.06 µM); in experiment [3] it was 2 µg/mL (≈ 4.22 µM).
The like results for `C[C@@](CCN1Cc2cc(C#Cc3ccc(CN4CCC(N)CC4)cc3)cn2C1=O)(C(=O)NO)S(C)(=O)=O.Cl.Cl` [Example 77, (R)-4-(6-((4-((4-aminopiperidin-1-yl)methyl)phenyl)ethynyl)-3-oxo-1H-pyrrolo[1,2-c]imidazol-2(3H)-yl)-N-hydroxy-2-methyl-2-(methylsulfonyl)butanamide dihydrochloride] were, in that order, 8 µg/mL, 16 µg/mL and 2 µg/mL.
The like results for `CC(C)(N)C#CC#Cc1cc2n(c1)C(=O)N(CC[C@](C)(C(=O)NO)S(C)(=O)=O)C2` [Example 31, (R)-4-(6-(5-amino-5-methylhexa-1,3-diyn-1-yl)-3-oxo-1H-pyrrolo[1,2-c]imidazol-2(3H)-yl)-N-hydroxy-2-methyl-2-(methylsulfonyl)butanamide] were, in that order, 1 µg/mL (≈ 2.38 µM), 1 µg/mL (≈ 2.38 µM) and 1 µg/mL (≈ 2.38 µM).
The like results for `C[C@@](CCN1Cc2cc(C#Cc3ccc(C4(CO)CC4)cc3F)cn2C1=O)(C(=O)NO)S(C)(=O)=O` [Example 19, (R)-4-(6-((2-fluoro-4-(1-(hydroxymethyl)cyclopropyl)phenyl)ethynyl)-3-oxo-1H-pyrrolo[1,2-c]imidazol-2(3H)-yl)-N-hydroxy-2-methyl-2-(methylsulfonyl)butanamide] were, in that order, 0.25 µg/mL (≈ 0.496 µM), 0.5 µg/mL (≈ 0.993 µM) and 1 µg/mL (≈ 1.99 µM).
Consider `C[C@@](CCN1Cc2cc(C#CC#C[C@@H]3C[C@@]3(F)CO)cn2C1=O)(C(=O)NO)S(C)(=O)=O` (single isomer, unassigned) [Example 79], for which the MIC in experiment [1] turned out to be 0.25 µg/mL (≈ 0.554 µM); in experiment [2], 0.25 µg/mL (≈ 0.554 µM); in experiment [3] it was 0.5 µg/mL (≈ 1.11 µM).
As for `C[C@@](CCN1Cc2cc(C#CC#CCC3(O)COC3)cn2C1=O)(C(=O)NO)S(C)(=O)=O` [Example 63, (R)-N-hydroxy-4-(6-(5-(3-hydroxyoxetan-3-yl)penta-1,3-diyn-1-yl)-3-oxo-1H-pyrrolo[1,2-c]imidazol-2(3H)-yl)-2-methyl-2-(methylsulfonyl)butanamide], the MIC in experiment [1] came to 2 µg/mL (≈ 4.45 µM); in experiment [2] it was 4 µg/mL (≈ 8.9 µM); in experiment [3] it was 4 µg/mL (≈ 8.9 µM).
As to `CC(C)Oc1ccc(-c2cc3n(c2)C(=O)N(CCC(C)(C(=O)NO)S(C)(=O)=O)C3)cc1F` (racemic) [RE10, (RS)-4-(6-(3-fluoro-4-isopropoxyphenyl)-3-oxo-1H-pyrrolo[1,2-c]imidazol-2(3H)-yl)-N-hydroxy-2-methyl-2-(methylsulfonyl)butanamide], the values for the MIC in experiment [1], in experiment [2] and in experiment [3] were 0.25 µg/mL (≈ 0.535 µM), 8 µg/mL (≈ 17.1 µM) and 2 µg/mL (≈ 4.28 µM), respectively.
The like results for `C[C@@](CCN1Cc2cc(C#Cc3ccc(CN4CCOCC4)cc3)cn2C1=O)(C(=O)NO)S(C)(=O)=O` [Example 25, (R)-N-hydroxy-2-methyl-2-(methylsulfonyl)-4-(6-((4-(morpholinomethyl)phenyl)ethynyl)-3-oxo-1H-pyrrolo[1,2-c]imidazol-2(3H)-yl)butanamide] were, in that order, 0.125 µg/mL (≈ 0.243 µM), 0.25 µg/mL (≈ 0.486 µM) and 1 µg/mL (≈ 1.94 µM).
The matching figures for `C[C@@](CCN1Cc2cc(C#CC#C[C@H]3C[C@]3(F)CO)cn2C1=O)(C(=O)NO)S(C)(=O)=O` (single isomer, unassigned) [Example 78]: 0.25 µg/mL (≈ 0.554 µM), 0.5 µg/mL (≈ 1.11 µM) and 0.5 µg/mL (≈ 1.11 µM).
Take `CN(C)CC#CC#Cc1cc2n(c1)C(=O)N(CC[C@](C)(C(=O)NO)S(C)(=O)=O)C2` [Example 46, (R)-4-(6-(5-(dimethylamino)penta-1,3-diyn-1-yl)-3-oxo-1H-pyrrolo[1,2-c]imidazol-2(3H)-yl)-N-hydroxy-2-methyl-2-(methylsulfonyl)butanamide]: the results for the MIC in experiment [1], in experiment [2] and in experiment [3] were 1 µg/mL (≈ 2.38 µM), 2 µg/mL (≈ 4.76 µM) and 4 µg/mL (≈ 9.51 µM), respectively.
The like results for `CC(C)(C)OC(=O)N1CC(O)(c2ccc(C#Cc3cc4n(c3)C(=O)N(CC[C@](C)(C(=O)NO)S(C)(=O)=O)C4)cc2)C1` [Example 59, tert-butyl (R)-3-hydroxy-3-(4-((2-(4-(hydroxyamino)-3-methyl-3-(methylsulfonyl)-4-oxobutyl)-3-oxo-2,3-dihydro-1H-pyrrolo[1,2-c]imidazol-6-yl)ethynyl)phenyl)azetidine-1-carboxylate] were, in that order, 1 µg/mL (≈ 1.7 µM), 1 µg/mL (≈ 1.7 µM) and 8 µg/mL (≈ 13.6 µM).
